Experimental data as given in patent US10004701B2, “Methods and compositions for treating infection” (UNIVERSITY OF ROCHESTER, priority 2012, dated 2018).
Structures can show the parent of a compound that is named as a salt. Where two headings read alike, the source gives them in different places.

How the values were obtained:
Assay in all cases: AK assay 384-well format, Prestwick library screening
E. faecium = format: cell-based, Enterococcus faecium; conditions: 50 μM final drug concentration; for fold induction at 50 µM: Enterococcus faecium, 3 h
[1] = system: S. aureus strain USA300-0114; format: cell-based, Staphylococcus aureus; conditions: 50 μM final drug concentration; for fold induction at 50 µM: Staphylococcus aureus, USA300, 3 h
K. pneumoniae = format: cell-based, Klebsiella pneumoniae; conditions: 50 μM final drug concentration; for fold induction at 50 µM: Klebsiella pneumoniae, 3 h
[2] = system: A. baumannii strain 98-37-09; format: cell-based, Acinetobacter baumannii; conditions: 50 μM final drug concentration; for fold induction at 50 µM: Acinetobacter baumannii, 983709, 3 h
P. aeruginosa = format: cell-based, Pseudomonas aeruginosa; conditions: 50 μM final drug concentration; for fold induction at 50 µM: Pseudomonas aeruginosa, 3 h
E. cloacae = format: cell-based, Enterobacter cloacae; conditions: 50 μM final drug concentration; for fold induction at 50 µM: Enterobacter cloacae, 3 h
E. coli = format: cell-based, Escherichia coli; conditions: 50 μM final drug concentration; for fold induction at 50 µM: Escherichia coli, 3 h
[3] = 384-well format, cutoff for positive-scoring molecules 3-fold increase, read-out: AK-based Prestwick Library Screening Results, E. coli (increase in extracellular AK activity)
[4] = planktonic, cutoff for positive-scoring molecules 3-fold increase

## Cc1cc(=O)n(-c2ccccc2)n1C [Antipyrine]
E. faecium; 384-well format, […], read-out: AK-based Prestwick Library Screening Results, E. faecium (increase in extracellular AK activity)
  fold induction at 50 µM: 1
[1]; 384-well format, […], read-out: AK-based Prestwick Library Screening Results, S. aureus (increase in extracellular AK activity)
  fold induction at 50 µM: 0.7
K. pneumoniae; 384-well format, […], read-out: AK-based Prestwick Library Screening Results, K. pneumoniae (increase in extracellular AK activity)
  fold induction at 50 µM: 0.7
[2]; 384-well format, […], read-out: AK-based Prestwick Library Screening Results, A. baumannii (increase in extracellular AK activity)
  fold induction at 50 µM: 1
P. aeruginosa; 384-well format, […], read-out: AK-based Prestwick Library Screening Results, P. aeruginosa (increase in extracellular AK activity)
  fold induction at 50 µM: 0.8
E. cloacae; 384-well format, […], read-out: AK-based Prestwick Library Screening Results, E. cloacae (increase in extracellular AK activity)
  fold induction at 50 µM: 1
E. coli; [3]
  fold induction at 50 µM: 0.9

## COc1cc(Cc2cnc(N)nc2N)cc(OC)c1OC [Trimethoprim]
E. faecium; planktonic E. faecium, 384-well, cutoff for positive-scoring molecules 3-fold increase, read-out: AK-based Prestwick Library Screening Results: E. faecium (increase in extracellular AK activity)
  fold induction at 50 µM: 1.1
[1]; planktonic S. aureus, 384-well, cutoff for positive-scoring molecules 3-fold increase, read-out: AK-based Prestwick Library Screening Results: S. aureus (increase in extracellular AK activity)
  fold induction at 50 µM: 1
K. pneumoniae; planktonic K. pneumoniae, 384-well, cutoff for positive-scoring molecules 3-fold increase, read-out: AK-based Prestwick Library Screening Results: K. pneumoniae (increase in extracellular AK activity)
  fold induction at 50 µM: 0.8
[2]; planktonic A. baumannii, 384-well, cutoff for positive-scoring molecules 3-fold increase, read-out: AK-based Prestwick Library Screening Results: A. baumannii (increase in extracellular AK activity)
  fold induction at 50 µM: 3.1
P. aeruginosa; planktonic P. aeruginosa, 384-well, cutoff for positive-scoring molecules 3-fold increase, read-out: AK-based Prestwick Library Screening Results: P. aeruginosa (increase in extracellular AK activity)
  fold induction at 50 µM: 1.1
E. cloacae; planktonic E. cloacae, 384-well, cutoff for positive-scoring molecules 3-fold increase, read-out: AK-based Prestwick Library Screening Results: E. cloacae (increase in extracellular AK activity)
  fold induction at 50 µM: 7.2
E. coli; planktonic E. coli, 384-well, cutoff for positive-scoring molecules 3-fold increase, read-out: AK-based Prestwick Library Screening Results: E. coli (increase in extracellular AK activity)
  fold induction at 50 µM: 1.2

## Spiramycin
E. faecium; [4]
  AK-based Prestwick Library Screening Results, E. faecium (fold increase in extracellular AK activity): 1.0
[1]; [4]
  AK-based Prestwick Library Screening Results, S. aureus (fold increase in extracellular AK activity): 6.6
K. pneumoniae; [4]
  AK-based Prestwick Library Screening Results, K. pneumoniae (fold increase in extracellular AK activity): 0.8
[2]; [4]
  AK-based Prestwick Library Screening Results, A. baumannii (fold increase in extracellular AK activity): 0.9
P. aeruginosa; [4]
  AK-based Prestwick Library Screening Results, P. aeruginosa (fold increase in extracellular AK activity): 0.7
E. cloacae; [4]
  AK-based Prestwick Library Screening Results, E. cloacae (fold increase in extracellular AK activity): 1.2
E. coli; [4]
  AK-based Prestwick Library Screening Results, E. coli (fold increase in extracellular AK activity): 0.9

## CN1CC[C@]23c4ccccc4N[C@H]1[C@]21CCN(C)[C@H]3Nc2ccccc21 [Calycanthine]
E. faecium; planktonic E. faecium, […]
  AK-based Prestwick Library Screening Results, E. faecium (increase in extracellular AK activity): 0.8
[1]; planktonic S. aureus, […]
  AK-based Prestwick Library Screening Results, S. aureus (increase in extracellular AK activity): 0.6
K. pneumoniae; planktonic K. pneumoniae, […]
  AK-based Prestwick Library Screening Results, K. pneumoniae (increase in extracellular AK activity): 0.7
[2]; planktonic A. baumannii, […]
  AK-based Prestwick Library Screening Results, A. baumannii (increase in extracellular AK activity): 0.8
P. aeruginosa; planktonic P. aeruginosa, […]
  AK-based Prestwick Library Screening Results, P. aeruginosa (increase in extracellular AK activity): 0.8
E. cloacae; planktonic E. cloacae, […]
  AK-based Prestwick Library Screening Results, E. cloacae (increase in extracellular AK activity): 1.2
E. coli; planktonic E. coli, […]
  AK-based Prestwick Library Screening Results, E. coli (increase in extracellular AK activity): 0.9

## CC(=O)OCC(=O)NCCCOc1cccc(CN2CCCCC2)c1 [Roxatidine Acetate HCl]
E. faecium; planktonic E. faecium, cutoff for positive-scoring molecules 3-fold increase, read-out: AK-based Prestwick Library Screening Results, E. faecium (increase in extracellular AK activity)
  fold induction at 50 µM: 1
[1]; planktonic S. aureus, cutoff for positive-scoring molecules 3-fold increase, read-out: AK-based Prestwick Library Screening Results, S. aureus (increase in extracellular AK activity)
  fold induction at 50 µM: 0.6
K. pneumoniae; planktonic K. pneumoniae, cutoff for positive-scoring molecules 3-fold increase, read-out: AK-based Prestwick Library Screening Results, K. pneumoniae (increase in extracellular AK activity)
  fold induction at 50 µM: 0.7
[2]; planktonic A. baumannii, cutoff for positive-scoring molecules 3-fold increase, read-out: AK-based Prestwick Library Screening Results, A. baumannii (increase in extracellular AK activity)
  fold induction at 50 µM: 0.8
P. aeruginosa; planktonic P. aeruginosa, cutoff for positive-scoring molecules 3-fold increase, read-out: AK-based Prestwick Library Screening Results, P. aeruginosa (increase in extracellular AK activity)
  fold induction at 50 µM: 0.7
E. cloacae; planktonic E. cloacae, cutoff for positive-scoring molecules 3-fold increase, read-out: AK-based Prestwick Library Screening Results, E. cloacae (increase in extracellular AK activity)
  fold induction at 50 µM: 0.9
E. coli; planktonic E. coli, cutoff for positive-scoring molecules 3-fold increase, read-out: AK-based Prestwick Library Screening Results, E. coli (increase in extracellular AK activity)
  fold induction at 50 µM: 0.8

## C[C@H](N)[C@H](O)c1cccc(O)c1 [Metaraminol bitartrate]
E. faecium; 384-well format, cutoff for positive-scoring molecules 3-fold increase, read-out: AK-based Prestwick Library Screening Results, E. faecium (increase in extracellular AK activity)
  fold induction at 50 µM: 1
[1]; 384-well format, cutoff for positive-scoring molecules 3-fold increase, read-out: AK-based Prestwick Library Screening Results, S. aureus (increase in extracellular AK activity)
  fold induction at 50 µM: 0.7
K. pneumoniae; 384-well format, cutoff for positive-scoring molecules 3-fold increase, read-out: AK-based Prestwick Library Screening Results, K. pneumoniae (increase in extracellular AK activity)
  fold induction at 50 µM: 0.8
[2]; 384-well format, cutoff for positive-scoring molecules 3-fold increase, read-out: AK-based Prestwick Library Screening Results, A. baumannii (increase in extracellular AK activity)
  fold induction at 50 µM: 0.9
P. aeruginosa; 384-well format, cutoff for positive-scoring molecules 3-fold increase, read-out: AK-based Prestwick Library Screening Results, P. aeruginosa (increase in extracellular AK activity)
  fold induction at 50 µM: 0.8
E. cloacae; 384-well format, cutoff for positive-scoring molecules 3-fold increase, read-out: AK-based Prestwick Library Screening Results, E. cloacae (increase in extracellular AK activity)
  fold induction at 50 µM: 1.3
E. coli; [3]
  fold induction at 50 µM: 1

## CC(=O)N1CCN(c2ccc(OCC3COC(Cn4ccnc4)(c4ccc(Cl)cc4Cl)O3)cc2)CC1 (centres unmarked) [Ketoconazole]
E. faecium; planktonic, cutoff for positive 3-fold increase, read-out: AK-based Prestwick Library Screening Results, E. faecium (fold increase in extracellular AK activity)
  fold induction at 50 µM: 0.9
[1]; planktonic, cutoff for positive 3-fold increase, read-out: AK-based Prestwick Library Screening Results, S. aureus (fold increase in extracellular AK activity)
  fold induction at 50 µM: 1.2
K. pneumoniae; planktonic, cutoff for positive 3-fold increase, read-out: AK-based Prestwick Library Screening Results, K. pneumoniae (fold increase in extracellular AK activity)
  fold induction at 50 µM: 1.2
[2]; planktonic, cutoff for positive 3-fold increase, read-out: AK-based Prestwick Library Screening Results, A. baumannii (fold increase in extracellular AK activity)
  fold induction at 50 µM: 1.5
P. aeruginosa; planktonic, cutoff for positive 3-fold increase, read-out: AK-based Prestwick Library Screening Results, P. aeruginosa (fold increase in extracellular AK activity)
  fold induction at 50 µM: 1.1
E. cloacae; planktonic, cutoff for positive 3-fold increase, read-out: AK-based Prestwick Library Screening Results, E. cloacae (fold increase in extracellular AK activity)
  fold induction at 50 µM: 1.5
E. coli; planktonic, […], read-out: AK-based Prestwick Library Screening Results, E. coli (fold increase in extracellular AK activity)
  fold induction at 50 µM: 1.3

## C[C@]12CC[C@H](O)C[C@H]1CC[C@@H]1[C@@H]2C[C@@H](O)[C@]2(C)[C@@H](C3=CC(=O)OC3)CC[C@]12O [Digoxigenin]
E. faecium; planktonic, cutoff for positive-scoring molecules 3-fold increase, read-out: AK-based Prestwick Library Screening Results, E. faecium (fold increase in extracellular AK activity)
  fold induction at 50 µM: 0.8
[1]; planktonic, cutoff for positive-scoring molecules 3-fold increase, read-out: AK-based Prestwick Library Screening Results, S. aureus (fold increase in extracellular AK activity)
  fold induction at 50 µM: 0.6
K. pneumoniae; planktonic, cutoff for positive-scoring molecules 3-fold increase, read-out: AK-based Prestwick Library Screening Results, K. pneumoniae (fold increase in extracellular AK activity)
  fold induction at 50 µM: 0.6
[2]; planktonic, cutoff for positive-scoring molecules 3-fold increase, read-out: AK-based Prestwick Library Screening Results, A. baumannii (fold increase in extracellular AK activity)
  fold induction at 50 µM: 0.6
P. aeruginosa; planktonic, cutoff for positive-scoring molecules 3-fold increase, read-out: AK-based Prestwick Library Screening Results, P. aeruginosa (fold increase in extracellular AK activity)
  fold induction at 50 µM: 0.5
E. cloacae; planktonic, cutoff for positive-scoring molecules 3-fold increase, read-out: AK-based Prestwick Library Screening Results, E. cloacae (fold increase in extracellular AK activity)
  fold induction at 50 µM: 0.7
E. coli; planktonic, cutoff for positive-scoring molecules 3-fold increase, read-out: AK-based Prestwick Library Screening Results, E. coli (fold increase in extracellular AK activity)
  fold induction at 50 µM: 0.7
